Data as given in patent US20250325684A1, “POTENT ANTI-CANCER CYCLOTIDES” (University of Southern California, priority 2022, published 2025).
Entries after “also recorded” stand apart in the source; their conditions may differ. Numbered stars: 1 amine (or outer) side, 2 acyl side, 3 side chain; on linkers, the order of the positions; unused ones are H or OH. Bridge positions count the residues as written; N and C are the ends. Square brackets hold non-standard residues; d marks the D form. I, II: the chains in the order shown. X1 = O=C(CCc1cn(CCOCCOCCOCCC(=O)[*:2])nn1)[*:1]; isoGln = NC(=O)[C@H](CCC(=O)[*:2])N[*:1]

Experiments:
[1] = test system: p53 pathway in LNCaP cells; test: Activation of the p53 pathway in LNCaP cells; assay type: cell-based, human
Description: Activation of the p53 pathway requires 6 to 8 h after exposing the cells to cyclotide MCo-52-2 for 1 h (FIG. 5B).
Stabilization of p53 could be observed just 8 h after treating the cells with the bioactive cyclotide (FIG. 5B), likely indicating the cyclotide crosses the cellular membrane into the cytosol through an endocytic mechanism as previously described for this type of microproteins (30, 31). […] These transcription factors (ATF3, FOXO3a and RUNX3) and kinases (DYRK2 and HIPK2) have been described to be regulated by the E3 ligase activity of Hdm2/HdmX (6). […] In both cases the peptide was able to inhibit tumor growth by 60% (HCT116-nude mice) and 80% (CT26-Balb/c mice) (FIG. 7).

[2] = Immunogenicity, IgG titer ELISA in Balb/c mice; assay type: in vivo, mouse; settings: intraperitoneal 25 mg/kg, 3 times per week for 28 days, listed as MCo-52-2-cTAT
Description: The ELISA assay was performed as follows. Micro microplate wells were coated with pmol of streptavidin and then blocked with a 5 solution of nonfat dry milk in PBS. Around of 150 pmol of the corresponding biotinylated antigen (MCo-52-2 or cTAT) were incubated with the streptavidin-coated wells. Murine IgG (m-IgG, 150 pmol) and PBS (no antigen) were used as positive and negative controls in the assay, respectively. Wells coated with antigens MCo-52-2 and cTAT were incubated with serial dilutions of sera from mice untreated and treated with cyclotide MCo-52-2-cTAT. The amount of murine IgG was detected using a goat HRP-conjugated anti-mouse IgG.

[3] = target: T1, E3 ligase activity of Hdm2 (Homo sapiens, UniProt Q00987); test: E3 ligase activity of Hdm2 on p53, commercial kit; assay type: biochemical; settings: in vitro, Hdm2 around 1 μM (FIG. 4B)
T1 construct: purchased
Description: FIGS. 4A-4B: Structure and E3 ligase inhibitory activity of cyclotide MCo-52-2. (FIG. 4A) Structures of the heterodimer formed by the RINGs domain of Hdm2 and HdmX and the complex of cyclotide MCo-52-2 with the RING domain of HdmX, the interacting residues in loops 1 and 5 are shown in light grey (on the left). (FIG. 4B) Inhibitory E3 ligase activity of cyclotide of Hdm2 on p53. The concentration of Hdm2 in the assay was around 1 μM as provided in the commercial kit.
Cyclotide MCo-52-2-cTAT efficiently antagonizes the RING-mediated dimerization of Hdm2/HdmX inhibiting its E3 ligase activity. Applicant developed a cell-based screening of genetically-encoded libraries of cyclotides for Hdm2/HdmX antagonists that has allowed the selection of a bioactive cyclotide, MCo-52-2-cTAT. […] This cyclotide can be efficiently produced by chemical synthesis using solid-phase peptide synthesis (SPPS) or heterologous expression systems (28). Heterologous expression of cyclotides allows introduction of NMR-active isotopes, such as ^13C and ^15N to study the structure of this cyclotide and how interacts with the RING-domains of Hdm2 and HdmX. Using this approach, Applicant solved the structure of cyclotide MCo-52-2 complexed to the RING domain of HdmX in solution (FIG. 4A).

[4] = test system: HCT116 xenografts; test: HCT116 xenograft in nude mice; assay type: in vivo, mouse; settings: two murine models of colorectal carcinoma
Description: Mice xenografts studies. HCT116 p53^−/− and CT26 xenografts were established by injecting 100 uL suspension of basal RPMI containing 0.5×10^6 cells into the rear right flanks of female nude mice (nu/nu) mice (HCT116) or Balb/C (CT26). When tumors reached an average volume of ≈100 mm^3, cohorts (n≥4) were treated with vehicle (5% dextrose in water, D5W), MCo-52-2-cTAT (40 mg/kg), or Nutlin-3 (20 mg/kg, […]) once daily for up to 38 days by intravenous injection (MCo-52-2-cTAT and vehicle) or by intraperitoneal administration (Nutlin-3) for HCT116 xenografts; or with vehicle (D5W), MCo-52-2-cTAT (25 mg/kg) three times per week by intraperitoneal injection. Compounds were prepared in a D5W at a final volume of 50 μL (peptide) or 100 μL (Nutlin-3). […] Individual weights were recorded thrice weekly, comparing the control and treatment groups as an additional indicator of tolerance of drug treatment as well as providing the average weight for calculation of drug dosing. Tumor size was measured with calipers. Tumor volume was calculated by measuring tumor size in two dimensions and applying those measurements to the calculation V=d^2×D/2, where d and D equal to the smaller and larger of the two measurements, respectively. […]

T1 sequence (Q00987 whole entry): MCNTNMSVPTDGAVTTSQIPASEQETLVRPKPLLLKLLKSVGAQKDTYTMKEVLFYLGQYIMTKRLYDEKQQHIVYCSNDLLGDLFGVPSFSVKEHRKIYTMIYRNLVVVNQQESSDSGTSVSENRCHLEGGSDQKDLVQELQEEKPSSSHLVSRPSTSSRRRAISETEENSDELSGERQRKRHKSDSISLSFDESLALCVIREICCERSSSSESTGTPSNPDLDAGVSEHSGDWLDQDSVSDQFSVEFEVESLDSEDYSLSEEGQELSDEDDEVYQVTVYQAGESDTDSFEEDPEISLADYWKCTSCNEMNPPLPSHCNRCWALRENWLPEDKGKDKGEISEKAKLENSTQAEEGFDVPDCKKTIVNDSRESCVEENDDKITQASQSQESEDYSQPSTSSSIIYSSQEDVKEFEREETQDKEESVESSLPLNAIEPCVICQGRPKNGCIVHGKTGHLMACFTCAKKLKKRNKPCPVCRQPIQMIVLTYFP

I: cyclo(ACICRHDSYCGSGSDGGVCPNLYLLCRRDKDCPG) / II: KK[dR]R[dR]G[dR]K[dK]R[dR][isoGln] (disulfide I:2-I:19, I:4-I:26, I:10-I:32; linker I:30-II:N via X1; lactam II:1-II:C) [Cyclotide 52-2-cTAT]
Time until activation of the p53 pathway / stabilization of p53 ([1]; after exposing the cells to cyclotide for 1 h, listed as MCo-52-2-cTAT): 8 h
Activation of the p53 pathway ([1]; wild type-p53, listed as MCo-52-2-cTAT): activate the p53 pathway in wild type-p53 cancer cells (LNCaP) in a dose-dependent fashion; also recorded: activates the p53 pathway in LNCaP cells in a dose-dependent fashion
Immunogenicity, IgG titer against the cyclotide [2]: did not show any significant IgG titer; also recorded: little immunogenicity
Inhibition of the E3 ligase activity of Hdm2 [3]: specifically inhibit the E3 ligase activity of Hdm2 in vitro in a dose-dependent fashion
p53 expression on tumor tissue (western blotting) [4]: stabilizes p53 expression on tumor tissue
